Test results taken from patent US20260191191A1, “METHOD FOR INACTIVATING ENVELOPED VIRUSES” (Merck Patent GmbH, priority 2022, published 2026).
“Also recorded” adds a separate entry of the source. Where two headings read alike, the source gives them in different places.

Tests used:
[1] = system: Xenotropic murine leukemia virus (XMuLV); format: cell-based
[2] = Critical micelle concentration (CMC) determination by static surface tension
[3] = system: Bovine viral diarrheal virus (BVDV); format: cell-based
Pseudorabies virus (PRV) = format: cell-based; settings: CHO clarified harvest, 15° C., within 5 min

## C11-C15 secondary alcohol ethoxylate
[1]
  SAE inactivation efficacy higher than Triton X-100 by: ~ 1.0 log
  XMuLV inactivation efficacy compared with Triton X-100: slightly higher efficacy than Triton™ X-100; also recorded: comparable inactivation with Triton™ X-100; also recorded: lower than that achieved with 1.0% Triton™ X-100, until a longer incubation time has elapsed; also recorded: comparable to that achieved with Triton™ X-100; also recorded: the same virus inactivation efficacy as Triton™ X-100
  XMuLV inactivation efficiency compared with Triton X-100: slightly higher than that achieved with Triton™ X-100 detergent
  time in which most XMuLV inactivation occurred: ≤ 5 min
[2]
  critical micelle concentration (CMC): 49 mg/L
[3]
  BVDV inactivation LRV: ≥ 4.0
Fresh human whole blood
  hemolysis compared with Triton X-100: comparable to Triton™ X-100
Pseudorabies virus (PRV); 0.5% detergent
  PRV inactivation LRV: ~ 6.5
Pseudorabies virus (PRV); 1.0% detergent
  PRV inactivation LRV: ≥ 5.0
